In US20220248732A1, “Saltiness-Perception Enhancing Compounds” (Frito-Lay North America, Inc., priority 2021, published 2022):

Assays:
[1] = system: panelists (saltiness intensity); test: Descriptive analysis of saltiness intensity of aqueous salt solutions (sample sets 1 and 2), 15-point scale; type: in vivo, human; conditions: for saltiness enhancement in salt solutions: 1x dosage level, 3.52 g NaCl/L (20% NaCl reduction), Tukey HSD alpha 0.05
From the text: (§1) The terms “saltiness,” “saltiness intensity,” and “mean saltiness intensity” may refer to the saltiness intensity of a compound, a composition, and/or a food product determined by an individual tasting a sample of the compound, the composition, and/or the food product and rating its saltiness intensity using a designated scale, such as the 15-point saltiness scale described herein.
(§2) Next, the panelists conducted descriptive analysis to evaluate the saltiness intensity of the following four sample sets.
(1) 2 mL samples of aqueous salt solutions with a 20% reduction in NaCl (3.52 g NaCl/L H2O) and 40% reduction in NaCl (2.64 NaCl/L H2O), relative to 2 mL of a control sample having a simulated saltiness intensity of traditional potato chips (4.40 g NaCl/L H2O);
(2) 2 mL samples of pH 6.2-6.5 aqueous salt solutions at the 20% NaCl reduction level (3.52 g NaCl/L H2O) with the addition of individual ones of the identified saltiness-enhancing compounds, where the compound dosage was at the endogenous level of the analyzed unsalted potato chips (1×) and at three times the endogenous level of the potato chips (3×);
(§3) Panelist evaluation of sample set (1): Twelve panelists rated saltiness intensity using a 15-point scale, in duplicate. The saltiness references provided were 0 points (water), 2.5 points (0.2% NaCl), 5 points (0.35% NaCl), and 8.5 points (0.5% NaCl).
as §3, with “(2): Eight” for “(1): Twelve”, “NaCl). The sensory dosage concentrations of the saltiness-enhancing compounds of the samples of sample set (2) is shown below in Table 3.” for “NaCl).”

[2] = system: panelists (saltiness intensity); test: Descriptive analysis of saltiness intensity of topically coated potato chip samples (sample sets 3 and 4), 15-point scale; type: in vivo, human; conditions: for salt-enhancing activity on potato chips: applied topically (as mixture) to 20% and 40% salt reduced potato chips at the 1x dosage
From the text: as §1, §2
(3) 1 g potato chip samples with 20% reduction in NaCl (12.3 g NaCl/kg) and 40% reductions in NaCl (9.2 g NaCl/kg), relative to traditional potato chips (15.4 g NaCl/kg); and
(4) 1 g potato chip samples at 20% and 40% salt reductions (relative to standard potato chips) with the addition of a mixture of the identified saltiness-enhancing compounds topically applied to potato chips at the endogenous level of the analyzed unsalted potato chips (1×).
Panelist evaluation of sample set (3): Twelve panelists rated saltiness intensity using a 15-point scale, in duplicate. The saltiness references provided were 0 points (water), 2.5 points (0.2% NaCl), 5 points (0.35% NaCl), and 8.5 points (0.5% NaCl).
Panelist evaluation of sample set (4): Nine panelists rated saltiness intensity using a 15-point scale, in duplicate. The saltiness references provided were 0 points (water), 2.5 points (0.2% NaCl), 5 points (0.35% NaCl), and 8.5 points (0.5% NaCl). […] Thus, application of one or more of the identified saltiness-perception enhancing compounds to a food product may enable a reduction of up to about 40 wt % of the amount of salt applied to a food product while eliminating or attenuating the concomitant reduction in saltiness that would otherwise occur.

**Q.** Which results are given for O=C(O)c1cc(O[C@@H]2OC[C@@H](O)[C@H](O)[C@H]2O)ccc1O [GAX, Gentisic acid 5-O-β-D xylopyranoside]?
**A.** saltiness enhancement in salt solutions [1]: significant saltiness enhancement; Mean Saltiness Intensity ([1]; 3.52 g NaCl + 0.44 mg GAX per L water (1x), pH 6.2-6.5, 15-point scale, eight panelists, Tukey group a (NaCl alone 5.0 b)): 6.0 a; Mean Saltiness Intensity ([1]; 3.52 g NaCl + 1.32 mg GAX per L water (3x), pH 6.2-6.5, 15-point scale, eight panelists, Tukey group ab (NaCl alone 5.0 b)): 5.4 ab; salt-enhancing activity on potato chips [2]: salt-enhancing activity

**Q.** How did the “Mean Saltiness Intensity” value ([1]; 2.64 g NaCl per L water, 40% reduced salt, 15-point scale, twelve panelists, Tukey group C) turn out when [Cl-].[Na+] [NaCl, sodium chloride] was run?
**A.** 4.4 C

**Q.** What about the “Mean Saltiness Intensity” value ([1]; 3.52 g NaCl per L water alone, control of GAX sample set, 15-point scale, eight panelists, Tukey group b) of the same compound?
**A.** 5.0 b

**Q.** And the “Mean Saltiness Intensity” value ([1]; 3.52 g NaCl per L water alone, control of KA sample set, 15-point scale, eight panelists, Tukey group b)?
**A.** 5.1 b

**Q.** And the “Mean Saltiness Intensity” value ([1]; 3.52 g NaCl per L water alone, control of L-Trp sample set, 15-point scale, eight panelists, Tukey group b)?
**A.** 5.1 b

**Q.** What about the “Mean Saltiness Intensity” value ([1]; 3.52 g NaCl per L water, 20% reduced salt, 15-point scale, twelve panelists, Tukey group B) of the same compound?
**A.** 5.4 B

**Q.** What about the “Mean Saltiness Intensity” value ([1]; 4.40 g NaCl per L water (control), 15-point scale, twelve panelists, Tukey group A) of the same compound?
**A.** 7.2 A

**Q.** What about the “Mean Saltiness Intensity” value ([2]; 9.2 g/kg NaCl on potato chips alone, 40% salt reduction sample comparison, nine panelists, Tukey group c) of the same compound?
**A.** 4.2 c

**Q.** What about the “Mean Saltiness Intensity” value ([2]; 12.3 g NaCl per Kg potato chips alone, 20% salt reduction sample comparison, nine panelists, Tukey group b) of the same compound?
**A.** 5.0 b

**Q.** What about the “Mean Saltiness Intensity” value ([2]; 15.4 g NaCl (full salt) per Kg potato chips, 20% salt reduction sample comparison, nine panelists, Tukey group a) of the same compound?
**A.** 6.2 a

**Q.** What about the “Mean Saltiness Intensity” value ([2]; 15.4 g NaCl (full salt) per Kg potato chips, 40% salt reduction sample comparison, nine panelists, Tukey group a) of the same compound?
**A.** 6.2 a

**Q.** What about the “Mean Saltiness Intensity” value ([2]; topical coating 9.2 g NaCl per Kg potato chips, 40% reduced salt, 15-point scale, twelve panelists, Tukey group C) of the same compound?
**A.** 4.2 C

**Q.** And the “Mean Saltiness Intensity” value ([2]; topical coating 12.3 g NaCl per Kg potato chips, 20% reduced salt, 15-point scale, twelve panelists, Tukey group B)?
**A.** 5.3 B

**Q.** And the “Mean Saltiness Intensity” value ([2]; topical coating 15.4 g NaCl per Kg potato chips (traditional), 15-point scale, twelve panelists, Tukey group A)?
**A.** 6.1 A

**Q.** Which results are given for N[C@@H](Cc1c[nH]c2ccccc12)C(=O)O [L-Trp, L-tryptophan]?
**A.** Mean Saltiness Intensity ([1]; 3.52 g NaCl + 31.66 mg L-Trp per L water (1x), pH 6.2-6.5, 15-point scale, eight panelists, Tukey group a (NaCl alone 5.1 b)): 5.7 a; Mean Saltiness Intensity ([1]; 3.52 g NaCl + 94.98 mg L-Trp per L water (3x), pH 6.2-6.5, 15-point scale, eight panelists, Tukey group a (NaCl alone 5.1 b)): 5.8 a; salt-enhancing activity on potato chips [2]: salt-enhancing activity

**Q.** Which results are given for O=C(CCc1ccc(O)c(O)c1)NCCCNCCCCNCCCNC(=O)CCc1ccc(O)c(O)c1 [KA, Kukoamine A]?
**A.** saltiness enhancement in salt solutions [1]: significant saltiness enhancement; Mean Saltiness Intensity ([1]; 3.52 g NaCl + 1.57 mg KA per L water (1x), pH 6.2-6.5, 15-point scale, eight panelists, Tukey group a (NaCl alone 5.1 b)): 5.9 a; Mean Saltiness Intensity ([1]; 3.52 g NaCl + 4.70 mg KA per L water (3x), pH 6.2-6.5, 15-point scale, eight panelists, Tukey group ab (NaCl alone 5.1 b)): 5.6 ab; salt-enhancing activity on potato chips [2]: salt-enhancing activity
